The target of one assay is T1, hFAP (M39-A757) (Homo sapiens, UniProt Q12884).
T1 sequence (Q12884 39-757): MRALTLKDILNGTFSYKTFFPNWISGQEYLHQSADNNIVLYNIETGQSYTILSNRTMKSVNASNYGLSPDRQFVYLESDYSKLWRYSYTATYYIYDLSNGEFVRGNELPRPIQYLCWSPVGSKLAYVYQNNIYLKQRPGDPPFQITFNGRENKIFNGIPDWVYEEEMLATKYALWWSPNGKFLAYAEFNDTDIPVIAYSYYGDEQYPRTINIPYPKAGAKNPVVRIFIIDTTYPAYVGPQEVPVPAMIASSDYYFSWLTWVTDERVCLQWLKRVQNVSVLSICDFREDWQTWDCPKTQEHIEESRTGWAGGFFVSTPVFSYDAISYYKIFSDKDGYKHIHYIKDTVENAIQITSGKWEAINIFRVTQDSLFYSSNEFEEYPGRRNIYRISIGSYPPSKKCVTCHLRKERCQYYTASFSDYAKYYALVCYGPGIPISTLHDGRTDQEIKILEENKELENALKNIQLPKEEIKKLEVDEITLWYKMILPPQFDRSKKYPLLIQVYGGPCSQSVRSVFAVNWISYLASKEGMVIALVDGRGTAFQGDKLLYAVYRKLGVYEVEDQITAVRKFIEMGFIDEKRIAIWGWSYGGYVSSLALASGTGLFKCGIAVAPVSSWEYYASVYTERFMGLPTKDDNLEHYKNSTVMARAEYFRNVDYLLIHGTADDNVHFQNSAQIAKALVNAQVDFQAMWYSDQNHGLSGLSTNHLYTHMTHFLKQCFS
Kind of assay: biochemical.

The target in a further assay is T2, hFAP (Homo sapiens, UniProt Q12884).
T2 sequence (Q12884 38-760): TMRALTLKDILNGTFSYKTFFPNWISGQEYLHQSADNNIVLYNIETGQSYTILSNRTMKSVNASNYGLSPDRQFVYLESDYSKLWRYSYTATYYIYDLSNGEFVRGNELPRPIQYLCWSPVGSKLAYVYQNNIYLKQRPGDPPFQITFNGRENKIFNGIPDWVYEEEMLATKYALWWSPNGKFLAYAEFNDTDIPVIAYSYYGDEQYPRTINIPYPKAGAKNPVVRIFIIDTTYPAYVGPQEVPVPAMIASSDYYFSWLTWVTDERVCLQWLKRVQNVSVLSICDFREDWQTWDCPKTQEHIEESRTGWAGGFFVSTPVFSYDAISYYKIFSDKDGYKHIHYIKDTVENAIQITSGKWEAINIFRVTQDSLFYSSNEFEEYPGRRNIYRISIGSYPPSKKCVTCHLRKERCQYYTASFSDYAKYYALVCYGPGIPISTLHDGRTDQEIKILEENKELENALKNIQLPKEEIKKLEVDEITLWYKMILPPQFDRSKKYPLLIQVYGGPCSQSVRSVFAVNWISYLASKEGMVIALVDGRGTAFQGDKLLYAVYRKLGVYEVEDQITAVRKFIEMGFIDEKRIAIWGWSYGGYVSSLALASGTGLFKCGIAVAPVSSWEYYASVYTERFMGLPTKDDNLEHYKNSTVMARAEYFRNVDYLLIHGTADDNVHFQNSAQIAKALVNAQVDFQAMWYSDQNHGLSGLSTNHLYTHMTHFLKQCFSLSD
The experiment in a line: biochemical.

The next assay has as its target T3, FAP Mouse Plasma (Mus musculus, UniProt P97321).
T3 construct: Plasma (anticoagulant K2EDTA) was used as the enzyme source; tissue AZ AST Biobank; host or cells: mouse plasma (K2EDTA)
T3 sequence (P97321 24-761 limits assumed): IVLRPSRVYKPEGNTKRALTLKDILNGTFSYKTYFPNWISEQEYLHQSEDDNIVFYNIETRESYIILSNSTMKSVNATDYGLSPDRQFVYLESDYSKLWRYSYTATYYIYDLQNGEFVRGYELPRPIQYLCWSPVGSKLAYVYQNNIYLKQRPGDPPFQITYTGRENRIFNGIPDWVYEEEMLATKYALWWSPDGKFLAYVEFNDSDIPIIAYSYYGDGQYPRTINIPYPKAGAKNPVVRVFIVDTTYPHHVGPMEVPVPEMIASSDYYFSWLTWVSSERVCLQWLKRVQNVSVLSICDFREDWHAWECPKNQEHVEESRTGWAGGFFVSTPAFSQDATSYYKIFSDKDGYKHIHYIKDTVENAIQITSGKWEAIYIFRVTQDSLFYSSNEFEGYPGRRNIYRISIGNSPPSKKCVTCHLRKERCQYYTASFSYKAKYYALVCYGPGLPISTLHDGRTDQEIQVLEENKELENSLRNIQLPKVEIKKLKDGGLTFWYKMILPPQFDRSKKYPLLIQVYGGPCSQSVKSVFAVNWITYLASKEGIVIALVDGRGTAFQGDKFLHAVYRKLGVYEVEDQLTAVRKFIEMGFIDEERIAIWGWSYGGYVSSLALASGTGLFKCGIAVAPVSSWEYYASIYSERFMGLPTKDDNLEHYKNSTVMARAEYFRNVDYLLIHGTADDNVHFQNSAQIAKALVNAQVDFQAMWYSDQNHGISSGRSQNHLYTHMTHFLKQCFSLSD
The experiment in a line: FAP plasma inhibition assay, mouse plasma. It is filed as biochemical. As to conditions: mouse plasma dilution 1:67, Ala-Pro-AMC 75 μM; n = 1. As for the experimental part:
This assay was adapted from the method described in Example 89 for detection of FAP target engagement enzyme activity in plasma. Plasma (anticoagulant K2EDTA) was used as the enzyme source: Human plasma (Pooled from AZ Biobank) and Mouse plasma (AZ AST Biobank) and Cynomolgus plasma (BioIVT, #NHP00PLK2FNN, lot CYN222895). 384-Well black fluotrack PS plates (Greiner 781076) were used. 20 μL diluted plasma (Cynomolgus and Human plasma dilution 1:40, Mouse plasma dilution 1:67) in buffer (PBS, 0.1% BSA) was added to 0.6 μL compounds (in DMSO). Compounds were tested using 10 CR, 3 fold dilution series from 500 nM FAC. Two replicates for each assay point were run on the same plate. A fluorescence blank read was taken before substrate addition. Substrate, Ala-Pro-AMC (ARI-3144) stock solution (20 mM in DMSO) was diluted in buffer (PBS, 0.1% BSA) to 150 μM concentration and 20 μL added giving 75 μM FAC. Plates were incubated for 40 min at rt in the dark. The plates were read on a Beckman Paradigm® reader with excitation 360 nm and emission 465 nm. Data were analyzed in Excel (IDBS XLfit Add-In) using a one site dose response model (4-parameter logistic fit).

This is an account of results in patent US20260070899A1, “N-(2-(4-CYANOTHIAZOLIDIN-3-YL)-2-OXOETHYL)-QUINOLINE-4-CARBOXAMIDES” (AstraZeneca AB, priority 2022, published 2026).

One may read the Kd as a measure of binding affinity in units of concentration. A low value points to higher affinity. As a reminder, the IC50 is the concentration that inhibits the measured activity by half. High values mean weaker potency in that assay, low ones greater potency in that assay.
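Throughout, for Kd: surface plasmon resonance direct binding to hFAP amine-coupled on a sensor chip, rising compound concentrations by single cycle kinetics, Kd from global fit of interaction models.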

Experimental for hFAP (M39-A757): Compounds were tested in a direct binding assay using 8K surface plasmon resonance biosensor (GE Healthcare) at 20° C. Immobilization of hFAP (M39-A757) on a CMD200M sensor chip (Xantec) was performed using standard amine coupling procedure in immobilization buffer (10 mM HEPES, 150 mM NaCl, 0.05% Tween20, pH 7.4). The surface was washed with 10 mM aq NaOH, 1M NaCl before being activated with EDC/NHS (GE Healthcare), followed by immobilization of hFAP (in 10 mM Acetate pH 5.0). Finally, the surface was deactivated by ethanolamine. Immobilization levels of hFAP were around 4000-6000 RU. The reference spot was treated as described, omitting the injection of hFAP. Compound concentration series were injected over the immobilized protein in increasing concentrations (2-500 nM) using single cycle kinetics in running buffer (20 mM TRIS, 150 mM NaCl, 0.05% Tween20, 1% DMSO, pH 7.4). Interaction models were fitted globally to the experimental traces, enabling determination of kon, koff and Kd.

`COC(C)(C)c1ccc2nccc(C(=O)NCC(=O)N3CSC[C@H]3C#N)c2c1` [Example 18, (R)—N-(2-(4-Cyanothiazolidin-3-yl)-2-oxoethyl)-6-(2-methoxypropan-2-yl)quinoline-4-carboxamide] gave a Kd at hFAP (M39-A757) of 0.43 nM. In addition, the IC50 was 0.81 nM at hFAP and 2.1 nM against FAP Mouse Plasma.

In turn, `N#C[C@@H]1CSCN1C(=O)CNC(=O)c1ccnc2ccc(C3CCCCO3)cc12` (mixture of isomers) [Example 32, N-(2-((R)-4-Cyanothiazolidin-3-yl)-2-oxoethyl)-6-((RS)-tetrahydro-2H-pyran-2-yl)quinoline-4-carboxamide] returned a Kd at hFAP (M39-A757) of 0.35 nM. Further, the IC50 came to 0.63 nM against hFAP and 1 nM at FAP Mouse Plasma.

The molecule `CO[C@H]1CC[C@H](c2ccc3nccc(C(=O)NCC(=O)N4CSC[C@H]4C#N)c3c2)CC1` (single isomer, unassigned) [Example 78, N-(2-((R)-4-Cyanothiazolidin-3-yl)-2-oxoethyl)-6-((1r,4R*)-4-methoxycyclohexyl)quinoline-4-carboxamide] yielded a Kd at hFAP (M39-A757) of 0.022 nM. Further, the IC50 on FAP Mouse Plasma was found to be 0.2 nM.

With `CC(C)(O)c1ccc2nccc(C(=O)NCC(=O)N3CSC[C@H]3C#N)c2c1` [Example 16, (R)—N-(2-(4-Cyanothiazolidin-3-yl)-2-oxoethyl)-6-(2-hydroxypropan-2-yl)quinoline-4-carboxamide], at hFAP (M39-A757), the affinity, expressed as Kd, was 0.23 nM. Moreover, the IC50 at hFAP came to 0.6 nM; against FAP Mouse Plasma, 0.9 nM.

`N#C[C@@H]1CSCN1C(=O)CNC(=O)c1ccnc2ccc(C3(O)CCOCC3)cc12` [Example 15, (R)—N-(2-(4-Cyanothiazolidin-3-yl)-2-oxoethyl)-6-(4-hydroxy-tetrahydro-2H-pyran-4-yl)quinoline-4-carboxamide] showed a Kd at hFAP (M39-A757) of 0.068 nM. Further, the IC50 against hFAP was found to be 0.45 nM; at FAP Mouse Plasma, 0.5 nM.

On to `N#C[C@@H]1CSCN1C(=O)CNC(=O)c1ccnc2ccc(C3CCOCC3)cc12` [Example 20, (R)—N-(2-(4-Cyanothiazolidin-3-yl)-2-oxoethyl)-6-(tetrahydro-2H-pyran-4-yl)quinoline-4-carboxamide], for which binding at hFAP (M39-A757) was put at a Kd of 0.056 nM. The IC50 on hFAP stood at 0.23 nM; against FAP Mouse Plasma it was 0.5 nM.

Consider `CCOC1(c2ccc3nccc(C(=O)NCC(=O)N4CSC[C@H]4C#N)c3c2)CCOCC1` [Example 23, (R)—N-(2-(4-Cyanothiazolidin-3-yl)-2-oxoethyl)-6-(4-ethoxytetrahydro-2H-pyran-4-yl)quinoline-4-carboxamide], for which the affinity on hFAP (M39-A757), expressed as Kd, was 0.059 nM. The IC50 against hFAP turned out to be 0.71 nM; against FAP Mouse Plasma it was 0.7 nM.

In turn, `N#C[C@@H]1CSCN1C(=O)CNC(=O)c1ccnc2ccc(C3(C#N)CC3)cc12` [Example 70, (R)-6-(1-Cyanocyclopropyl)-N-(2-(4-cyanothiazolidin-3-yl)-2-oxoethyl)quinoline-4-carboxamide] had a Kd at hFAP (M39-A757) of 0.62 nM. Besides, the IC50 was 0.43 nM against hFAP and 0.7 nM against FAP Mouse Plasma.

Consider `CC(C)(F)COc1ccc2nccc(C(=O)NCC(=O)N3CSC[C@H]3C#N)c2c1` [Example 3, (R)—N-(2-(4-Cyanothiazolidin-3-yl)-2-oxoethyl)-6-(2-fluoro-2-methylpropoxy)quinoline-4-carboxamide], for which the Kd at hFAP (M39-A757) worked out at 0.062 nM. Besides, inhibition against FAP Mouse Plasma was half-maximal at 0.5 nM (IC50).
